Assay results as given in PMC11203978, “Discovery of Di(het)arylmethane and Dibenzoxanthene Derivatives as Potential Anticancer Agents” (International Journal of Molecular Sciences, 2024).

Assays:
PA-1 = test: MTT cytotoxicity, PA-1; assay type: cell-based; conditions: Homo sapiens, read-out: IC50 (µM) Cancer Cell Lines PA-1
Description: Cells and Materials. For the experiments, we used tumor cell cultures M-HeLa clone 11 (epithelioid carcinoma of the cervix, subline HeLa, clone M-HeLa), HuTu 80, human duodenal adenocarcinoma, Hep-2, human epithelial cells, SH-SY5Y, human neuroblast-like cells, A549, human lung adenocarcinoma, PA-1, human ovarian teratocarcinoma and MCF-7, a human mammary ductal adenocarcinoma from the collection of the Institute of Cytology, Russian Academy of Sciences (St. Petersburg, Russia); human liver cells (Chang liver) were from the collection and the Research Institute of Virology of the Russian Academy of Medical Sciences (Moscow, Russia).
MTT Assay. The cytotoxic effect on cells was determined using the colorimetric method of cell proliferation—the MTT test. NADP-H-dependent cellular oxidoreductase enzymes can, under certain conditions, reflect the number of viable cells. These enzymes reduce the tetrazolium dye (MTT) 3-(4,5-dimethylthiazol-2-yl)-2,5-diphenyl-tetrazolium bromide to insoluble blue-violet formazan, which crystallizes inside the cell. The amount of formed formazan is proportional to the number of cells with active metabolism. […] Optical density was recorded at 540 nm on an Invitrologic microplate reader (Novosibirsk, Russia). […]
Statistical analysis. The IC50 values were calculated using the MLA–Quest Graph™ IC50 Calculator (AAT Bioquest, Inc., Sunnyvale, CA, USA), 14 February 2022. […]

HuTu 80 cells [1] = test: Mitochondrial membrane potential, JC-10 flow cytometry; assay type: cell-based, human; conditions: 24 h treatment, IC50/2 and IC50
Procedure: In this study, we used the fluorescent dye JC-10 from the Mitochondria Membrane Potential Kit (Sigma, St. Louis, MO, USA). Changes in mitochondrial membrane potential under the influence of lead compounds 5a and 6a were determined at IC50/2 and IC50 concentrations on the HuTu 80 cell line. When JC-10 accumulates in the mitochondrial matrix, it forms fluorescent J-aggregates. Their red fluorescence is characteristic for normal cells with high mitochondrial membrane potential. The reduction in mitochondrial membrane potential in apoptotic cells allows JC-10 to escape out of the mitochondria in a monomeric form which has green fluorescence. The mitochondrial membrane potential of HuTu 80 cells is decreased after 24 h treatment with the lead compounds 5a and 6a. The change becomes more pronounced as the concentrations of the tested compounds approach IC50 (Figure 7).
Cell Culture. HuTu 80 cells at 1 × 10^6 cells/well in a final volume of 2 mL were seeded into six-well plates. After 48 h of incubation, various concentrations of lead compounds were added to wells.
Mitochondrial Membrane Potential. […] After the cells were rinsed three times and suspended in PBS, the JC-10 fluorescence was observed using flow cytometry (Guava easy Cyte, MERCK, Rahway, NJ, USA).

HuTu 80 cells [2] = test: Intracellular ROS, CellROX Deep Red flow cytometry; assay type: cell-based, human; conditions: IC50/2 and IC50
Procedure: The apoptosis via the mitochondrial pathway also increases the production of reactive oxygen species (ROS). As mitochondria itself becomes the target of ROS, an increase in their production disrupts mitochondrial functions and culminates in irreversible cell damage. Therefore, the effect of lead compounds 6a and 5a at IC50/2 and IC50 concentrations on ROS production in HuTu 80 cells was evaluated using flow cytometry. […] Such an effect is not observed for intact cells in the presence of both compounds, indicating an increase in ROS production in cancer tissues.
Detection of Intracellular ROS. HuTU 80 cells were incubated with lead compounds at concentrations of IC50/2 and IC50 for 48 h. ROS generation was investigated using flow cytometry assay and CellROX® Deep Red flow cytometry kit. For this purpose, […] cells were harvested at 2000 rpm for 5 min and then washed twice with ice-cold PBS, followed by resuspension in 0.1 mL of medium without FBS, to which was added 0.2 μL of CellROX® Deep Red, which was followed by incubation at 37 °C for 30 min. The cells were washed three times and suspended in PBS. After that, the production of ROS in the cells was immediately monitored using flow cytometer (Guava easy Cyte, MERCK, Rahway, NJ, USA).

Structure (SMILES): O=C(C[P+](c1ccccc1)(c1ccccc1)c1ccccc1)NCCC1c2c(ccc3ccccc23)Oc2ccc3ccccc3c21 [Compound 6a]
- IC50 (PA-1): 11.2 ± 1.36 µM
- mitochondrial membrane potential (in words) (HuTu 80 cells [1]): decreased
- ROS production, CellROX Deep Red fluorescence intensity (in words) (HuTu 80 cells [2]): significant reliable increase
